# Source: patent publication US10568892B2, “Cycloartane tetracyclic triterpenoid compound, preparation method therefor and use thereof” (Hefei Cosource Pharmaceuticals Inc., priority 2016, dated 2020)
# Like-named read-outs stand apart in the source and are kept apart here. Marks after values point to notes of the source that are not given here.
# Columns and labels:
# [1] = tested on: ventricular papillary muscle cell of guinea pig; assay: Action potential of the ventricular papillary muscle cell of guinea pig (electrophysiological recording); type: cell-based; details: for percent change in action potential duration at 0.0005 µM / percent change in action potential duration at 0.005 µM / percent change in action potential duration at 0.05 µM: Cavia porcellus, 20 min, read-out: APD, Change rate (%); for APD50, Pre-administration / APD90, Pre-administration: baseline; for Effect on the APD value of the action potential of the papillary muscle (in words): Table 3 summary
# Experimental: Method: One guinea pig was taken to violently hit the back of the brain such that it fainted. The common carotid artery was cut off for bleeding to kill the guinea pig. The chest was incised to expose the heart, and the ventricle was cut open along the interventricular septum to expose the lumen of the left ventricle. The papillary muscles were quickly taken out and placed in a Kreb's solution saturated with O2 (mixed gas of 95% O2 and 5% CO2) at 0° C. After the microscopic dressing, the papillary muscle specimen was fixed with a stainless steel needle on the silicone rubber at the bottom of the perfusion bath, and perfused with the oxygen-saturated Kreb's solution. The relevant parameters for perfusion: the temperature was 37±0.5° C., and the flow rate was 4 mL/min.
# Cellular action potentials were recorded using a conventional electrophysiological method. The glass electrode filled with 3M KCl saturated solution and having a tip resistance of 15-30 MΩ was fixed on the microelectrode manipulator MP-2. The glass electrode was gently inserted into the superficial layer of the prepared papillary muscle specimen using a microelectrode pusher. The electrode was adjusted to provide the predetermined bioelectrical stimulation with the triple-channel SEN-7203 electronic stimulator and SS-202 J isolator. The bioelectrical signal was amplified by the MEZ-8301 amplifier and then input to the computerized electrophysiological recording and analysis system Powerlab 4/25. Subsequently, the relevant parameters of the action potential for the ventricular papillary muscle were analyzed through the analysis system. The relevant parameters for electrical stimulation: 30 ms latency, 7 ms wavewidth, 1 Hz frequency, 52.1 my stimulation intensity.
# In the compound screening test stage, after the ventricular papillary muscle specimen of the guinea pig was fixed, it was first perfused with a normal Kreb's solution for about 85 minutes for stabilization, and the relevant parameters of the cellular action potential before administration were recorded at about 80 min after the start of perfusion. The three-limb tube was used to convert the perfusates containing the title compounds. The title compounds were continuously perfused for about 25 min successively with low (0.0005 μM), medium (0.005 μM), and high (0.05 μM) concentrations, respectively. At about 20 min after the start of drug perfusions at different concentrations, the relevant parameters of the action potentials for the ventricular papillary muscle of guinea pig were observed and recorded, respectively. The normal Kreb's solution was used to perfuse and elute for about 25 min during the intervals between drug perfusions at different concentrations.
# The experiment was divided into the following five groups with 6 animals in each group: a vehicle control group, a 369 low dose (0.0005 μM) group, a 369 medium dose (0.005 μM) group, a 369 high dose (0.05 μM) group, and an amiodarone (10 μM) positive control group. After the ventricular papillary muscle specimen of the guinea pig was fixed, it was first perfused with a normal Kreb's solution for about 85 minutes for stabilization, and the relevant parameters of the cellular action potential before administration were recorded at about 80 min after the start of perfusion. According to groups, the three-limb tube was configured to convert the perfusates containing the vehicle, positive control, or Compound 369 at the corresponding concentrations to continuously perfuse for about 25 min. At about 20 min after the start of the perfusions, the relevant parameters of the action potentials for the ventricular papillary muscle of guinea pig were observed and recorded.
# [2] = tested on: SD rat; assay: Rat model of heart failure induced by adriamycin; type: in vivo
# Experimental: 2 mg/kg of adriamycin was injected through tail vein to a SD rat for modeling, once a week for 6 weeks. After the modeling was completed, intragastrical administration of Compound 369 at low (3 mg/kg) and high (9 mg/kg) doses was carried out daily for 4 weeks. In the negative control group, the same volume of normal saline was injected through the tail vein once a week for 6 weeks, thereafter the same volume of vehicle was intragastrically administrated daily for 4 weeks. After the end of the administration, the blood pressure was measured by the carotid artery intubation. The left ventricular end diastolic pressure (LVEDP), left ventricular systolic pressure (LVSP), maximal rate of left ventricular systolic pressure (+dp/dt max), and maximal rate of left ventricular diastolic pressure (−dp/dt max) were recorded, and the average values thereof were calculated.
# After the hemodynamic indexes were measured, the chest was opened and the heart and lung were quickly taken out. They were immediately placed in the normal saline at 4° C. to wash down the remaining blood. The fats, blood vessels and atrial tissues on the heart were discarded. The heart was sucked dry by the filter paper, and accurately weighed using the electronic balance to record the heart weight. The ratio of heart weight to body weight (HW/BW), i.e., the heart mass index (HMI), was calculated.
# [3] = Single-dose toxicity (MTD) in SD rats; type: in vivo; details: in vivo, SD rat, read-out: Maximum tolerance dose (MTD)
# Text: The results of the experimental study on the toxicity of Compound 369 administrated through a single intravenous or intragastrical administration in SD rats and KM mice are shown in Table 9.
# [4] = High dose 9 mg/kg intragastrical daily for 4 weeks
# [5] = Low dose 3 mg/kg intragastrical daily for 4 weeks
smiles,measurement,setting,value
"CN[C@H]1CC[C@]23C[C@]24CC[C@]2(C)C(C(C)=O)=CC[C@@]2(C)[C@@H]4CC[C@H]3C1(C)C [Compound 369, (3β,5α)-4,4,14-trimethyl-3-(methylamino)-9,19-cyclopregnan-16-en-20-one]","Effect on APD, APD50 and APD90 (in words)","[1]; 0.0005 μM, 0.005 μM and 0.05 μM, concentration-dependent","can prolong APD, APD50 and APD90"
same,percent change in action potential duration at 0.0005 µM,"[1]; n = 6, x ± SD, 0.0005 μM",43.6%
same,percent change in action potential duration at 0.005 µM,"[1]; n = 6, x ± SD, 0.005 μM",43.5%
same,percent change in action potential duration at 0.05 µM,"[1]; n = 6, x ± SD, 0.05 μM",66.5%
same,percent change in action potential duration at 0.0005 µM,"[1]; screening stage, 0.0005 μM",26.8%
same,percent change in action potential duration at 0.005 µM,"[1]; screening stage, 0.005 μM",47.9%
same,percent change in action potential duration at 0.05 µM,"[1]; screening stage, 0.05 μM",65.7%
same,"APD50, Change rate (%)","[1]; n = 6, x ± SD, 0.0005 μM",49.41% ± 16.99%
same,"APD50, Post-administration","[1]; n = 6, x ± SD, 0.0005 μM",0.0572 ± 0.0247^a
same,"APD90, Change rate (%)","[1]; n = 6, x ± SD, 0.0005 μM",44.30% ± 17.58%^b
same,"APD90, Post-administration","[1]; n = 6, x ± SD, 0.0005 μM",0.0795 ± 0.0260^a
same,"APD, Post-administration","[1]; n = 6, x ± SD, 0.0005 μM",0.0930 ± 0.0246^a
same,"APD50, Pre-administration","[1]; n = 6, x ± SD, 0.0005 μM group",0.0365 ± 0.0183
same,"APD90, Pre-administration","[1]; n = 6, x ± SD, 0.0005 μM group",0.0537 ± 0.0235
same,"APD50, Change rate (%)","[1]; n = 6, x ± SD, 0.005 μM",47.25% ± 28.78%
same,"APD50, Post-administration","[1]; n = 6, x ± SD, 0.005 μM",0.0610 ± 0.0342^a
same,"APD90, Change rate (%)","[1]; n = 6, x ± SD, 0.005 μM",40.25% ± 24.21%^b
same,"APD90, Post-administration","[1]; n = 6, x ± SD, 0.005 μM",0.0838 ± 0.0345^a
same,"APD, Post-administration","[1]; n = 6, x ± SD, 0.005 μM",0.1023 ± 0.0365^a
same,"APD50, Pre-administration","[1]; n = 6, x ± SD, 0.005 μM group",0.0428 ± 0.0244
same,"APD90, Pre-administration","[1]; n = 6, x ± SD, 0.005 μM group",0.0604 ± 0.0243
same,"APD50, Change rate (%)","[1]; n = 6, x ± SD, 0.05 μM",101.63% ± 62.10%^b
same,"APD50, Post-administration","[1]; n = 6, x ± SD, 0.05 μM",0.0764 ± 0.0270^a
same,"APD90, Change rate (%)","[1]; n = 6, x ± SD, 0.05 μM",70.81% ± 46.76%^b
same,"APD90, Post-administration","[1]; n = 6, x ± SD, 0.05 μM",0.1006 ± 0.0242^a
same,"APD, Post-administration","[1]; n = 6, x ± SD, 0.05 μM",0.1199 ± 0.0235^a
same,"APD50, Pre-administration","[1]; n = 6, x ± SD, 0.05 μM group",0.0385 ± 0.0090
same,"APD90, Pre-administration","[1]; n = 6, x ± SD, 0.05 μM group",0.0603 ± 0.0103
same,Effect on the APD value of the action potential of the papillary muscle (in words),[1]; screening stage,the strongest effect
same,Effect on the APD value of the action potential of the papillary muscle (in words),"[1]; screening stage, listed as Example 1",a certain degree of prolonged effects
same,"APD, Post-administration","[1]; screening stage, 0.0005 μM, about 20 min perfusion",0.0912
same,"APD, Post-administration","[1]; screening stage, 0.005 μM, about 20 min perfusion",0.1031
same,"APD, Post-administration","[1]; screening stage, 0.05 μM, about 20 min perfusion",0.1168
same,Therapeutic effect on heart failure induced by adriamycin (in words),[2]; 3 and 9 mg/kg intragastrical daily for 4 weeks,a certain therapeutic effect
same,ADBP,[2]; [4],47.0 ± 17.1 mmHg
same,ASBP,[2]; [4],84.9 ± 13.3 mmHg
same,BW,[2]; [4],380.3 ± 24.8 g
same,HW,[2]; [4],1185.0 ± 135.3 mg
same,HW/BW,[2]; [4],3.11 mg/g
same,LVEDP,[2]; [4],−14.2 ± 8.8 mmHg
same,LVSP,[2]; [4],97.3 ± 8.9 mmHg
same,dp/dtmax,[2]; [4],2402.3 ± 427.6 mmHg/s
same,−dp/dt max,[2]; [4],−2098.7 ± 345.9 mmHg/s
same,ADBP,[2]; [5],40.4 ± 15.3 mmHg
same,ASBP,[2]; [5],80.8 ± 17.3 mmHg
same,BW,[2]; [5],308.5 ± 34.65 g
same,HW,[2]; [5],1007.4 ± 145.3 mg
same,HW/BW,[2]; [5],3.27 mg/g
same,LVEDP,[2]; [5],−12.7 ± 10.0 mmHg
same,LVSP,[2]; [5],96.5 ± 9.1 mmHg
same,dp/dtmax,[2]; [5],2317.7 ± 715.4 mmHg/s
same,−dp/dt max,[2]; [5],−2013.5 ± 405.4 mmHg/s
same,MTD,"[3]; po, single intragastrical administration",1000 mg/kg
same,MTD,[3]; single intravenous injection,45 mg/kg
